The target of assay [1] is T1, human H1 receptor (Homo sapiens, UniProt P35367).
T1 construct: expressed in transfected cells
In words: Histamine H1 functional antagonist assay: determination of functional pKi values (FLIPR). Conditions: CHO cells expressing human H1 receptor, histamine at EC80, read-out: average pKi (pKb) at H1 (converted). In kind it is cell-based. Here is the method:
The human H1 receptor is cloned using known procedures described in the literature [Biochem. Biophys. Res. Commun., 201(2):894 (1994)]. Chinese hamster ovary (CHO) cells stably expressing the human H1 receptor are generated according to known procedures described in the literature [Br. J. Pharmacol., 117(6):1071 (1996)]. The histamine H1 cell line is seeded into non-coated black-walled clear bottom 384-well tissue culture plates in alpha minimum essential medium (Gibco/Invitrogen, cat no. 22561-021), supplemented with 10′)/0 dialysed foetal calf serum (Gibco/Invitrogen cat no. 12480-021) and 2 mM L-glutamine (Gibco/Invitrogen cat no 25030-024) and is maintained overnight at 5% CO2, 37° C. Excess medium is removed from each well to leave 10 μl. 30 μl loading dye (250 μM Brilliant Black, 2 μM Fluo-4 diluted in Tyrodes buffer+probenecid (145 mM NaCl, 2.5 mM KCl, 10 mM HEPES, 10 mM D-glucose, 1.2 mM MgCl2, 1.5 mM CaCl2, 2.5 mM probenecid, pH adjusted to 7.40 with NaOH 1.0 M)) is added to each well and the plates are incubated for 60 min at 5% CO2, 37° C. 10 μl of test compound, diluted to the required concentration in Tyrodes buffer+probenecid (or 10 μl Tyrodes buffer+probenecid as a control) is added to each well and the plate is incubated for 30 min at 37° C., 5% CO2. The plates are then placed into a FLIPR™(Molecular Devices, UK) to monitor cell fluorescence (λex=488 nm, λEM=540 nm) in the manner described in Sullivan et al., (In: Lambert DG (ed.), Calcium Signaling Protocols, New Jersey: Humana Press, 1999, 125-136) before and after the addition of 10 μl histamine at a concentration that results in the final assay concentration of histamine being EC80. Functional antagonism is indicated by a suppression of histamine induced increase in fluorescence, as measured by the FLIPR™ system (Molecular Devices). By means of concentration effect curves, functional affinities are determined using standard pharmacological mathematical analysis.

The target in assay [2] is T2, histamine H3 receptor (Homo sapiens, UniProt Q9Y5N1).
T2 construct: expressed in transfected cells; host or cells: CHO K1 cells with pSwitch/pGeneH3 (GeneSwitch, mifepristone-induced), clone 3H3; membrane preparation
In words: Histamine H3 functional antagonist assay (GTPγS, membranes). In kind it is biochemical. The conditions noted are these: CHO K1 membranes, [35S]-GTPγS, histamine at EC80; read-out: average pKi (pKb) at H3 (converted). Here is the method: The histamine H3 cDNA is isolated from its holding vector, pcDNA3.1 TOPO (InVitrogen), by restriction digestion of plasmid DNA with the enzymes BamH1 and Not-1 and is ligated into the inducible expression vector pGene (InVitrogen) digested with the same enzymes. The GeneSwitchTM system (a system where in transgene expression is switched off in the absence of an inducer and switched on in the presence of an inducer) is performed as described in U.S. Pat. Nos. 5,364,791; 5,874,534; and 5,935,934. Ligated DNA is transformed into competent DH5α E. coli host bacterial cells and is plated onto Luria Broth (LB) agar containing ZeocinTM (an antibiotic which allows the selection of cells expressing the sh ble gene which is present on pGene and pSwitch) at 50 μgml^-1. Colonies containing the re-ligated plasmid are identified by restriction analysis. DNA for transfection into mammalian cells is prepared from 250 ml cultures of the host bacterium containing the […]3 plasmid and is isolated using a DNA preparation kit (Qiagen Midi-Prep) as per manufacturers guidelines (Qiagen). CHO K1 cells previously transfected with the pSwitch regulatory plasmid (InVitrogen) are seeded at 2×10^6 cells per T75 flask in Complete Medium, containing Hams F12 (GIBCOBRL, Life Technologies) medium supplemented with 10% v/v dialysed foetal bovine serum, L-glutamine, and hygromycin (100 μgml^-1), 24 h prior to use. Plasmid DNA is transfected into the cells using Lipofectamine plus according to the manufacturer's guidelines (InVitrogen). 48 h post transfection, cells are placed into complete medium supplemented with 500 μgml^-1 ZeocinTM. 10-14 days post selection, 10 nM Mifepristone (InVitrogen) is added to the culture medium to induce the expression of the receptor. 18 h post induction, cells are detached from the flask using ethylenediamine tetra-acetic acid (EDTA; 1:5000; InVitrogen), following several washes with PBS, pH 7.4 and are resuspended in Sorting Medium containing Minimum Essential Medium (MEM), without phenol red, and are supplemented with Earles salts and 3% Foetal Clone II (Hyclone). Approximately 1×10^7 cells are examined for receptor expression by staining with a rabbit polyclonal antibody, 4a, raised against the N-terminal domain of the histamine H3 receptor, are incubated on ice for 60 min, followed by two washes in sorting medium. Receptor bound antibody is detected by incubation of the cells for 60 min on ice with a goat anti rabbit antibody, conjugated with Alexa 488 fluorescence marker (Molecular Probes). Following two further washes with Sorting Medium, cells are filtered through a 50 μm FilconTM (BD Biosciences) and then are analysed on a FACS Vantage SE Flow Cytometer fitted with an Automatic Cell Deposition Unit. Control cells are non-induced cells treated in an analogous manner. Positively stained cells are sorted as single cells into 96-well plates, containing Complete Medium containing 500 μgml^-1 ZeocinTM and are allowed to expand before reanalysis for receptor expression via antibody and ligand binding studies. One clone, 3H3, is selected for membrane preparation. All steps of the protocol are carried out at 4° C. and with pre-cooled reagents. The cell pellet is resuspended in 10 volumes of homogenisation buffer (50 mM N-2-hydroxyethylpiperazine-N'-2-ethanesulfonic acid (HEPES), 1 mM ethylenediamine tetra-acetic acid (EDTA), pH 7.4 with KOH, supplemented with 10^-6 M leupeptin (acetyl-leucyl-leucyl-arginal; Sigma L2884), 25 μgml^-1 bacitracin (Sigma B0125), 1 mM phenylmethylsulfonyl fluoride (PMSF) and 2×10^-6 M pepstain A (Sigma)). The cells are then homogenised by 2×15 sec bursts in a 1 L glass Waring blender, followed by centrifugation at 500 g for 20 min. The supernatant is then spun at 48,000 g for 30 min. The pellet is resuspended in homogenisation buffer (4× the volume of the original cell pellet) by vortexing for 5 sec, followed by homogenisation in a Dounce homogeniser (10-15 strokes). […]

T2 sequence (Q9Y5N1 whole entry, species assumed): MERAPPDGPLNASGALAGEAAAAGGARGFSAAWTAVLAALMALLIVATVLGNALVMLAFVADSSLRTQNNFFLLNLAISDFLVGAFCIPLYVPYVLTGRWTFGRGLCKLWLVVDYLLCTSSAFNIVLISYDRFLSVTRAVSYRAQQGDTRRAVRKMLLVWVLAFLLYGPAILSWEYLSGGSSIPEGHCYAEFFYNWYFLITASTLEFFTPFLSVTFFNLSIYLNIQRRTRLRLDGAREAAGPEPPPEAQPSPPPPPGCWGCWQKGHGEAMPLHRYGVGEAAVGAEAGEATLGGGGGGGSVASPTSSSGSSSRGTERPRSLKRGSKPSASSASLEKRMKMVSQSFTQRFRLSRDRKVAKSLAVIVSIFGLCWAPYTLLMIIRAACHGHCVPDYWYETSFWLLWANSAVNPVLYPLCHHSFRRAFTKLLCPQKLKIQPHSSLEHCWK
T1 sequence (P35367 whole entry): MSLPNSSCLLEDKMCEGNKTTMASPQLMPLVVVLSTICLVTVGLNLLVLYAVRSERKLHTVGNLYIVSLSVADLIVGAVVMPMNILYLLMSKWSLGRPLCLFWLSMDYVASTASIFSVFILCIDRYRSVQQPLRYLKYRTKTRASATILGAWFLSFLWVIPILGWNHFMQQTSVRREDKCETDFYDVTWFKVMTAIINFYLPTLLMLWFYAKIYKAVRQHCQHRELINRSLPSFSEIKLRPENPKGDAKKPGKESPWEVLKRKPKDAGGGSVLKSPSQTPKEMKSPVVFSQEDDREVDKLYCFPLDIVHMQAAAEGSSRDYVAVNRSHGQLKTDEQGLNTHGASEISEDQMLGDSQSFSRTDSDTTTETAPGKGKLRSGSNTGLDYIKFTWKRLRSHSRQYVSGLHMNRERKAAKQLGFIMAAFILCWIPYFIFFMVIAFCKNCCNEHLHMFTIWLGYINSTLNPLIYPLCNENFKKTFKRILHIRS

With `CCCCCCc1cc(OC2CCN(C[C@H]3CC[C@H](C(=O)Nc4ccc(C)cc4)CC3)CC2)c2ncccc2c1` [Example 48, trans-4-({4-[(6-hexyl-8-quinolinyl)oxy]-1-piperidinyl}methyl)-N-(4-methylphenyl) cyclohexane carboxamide], the Ki in assay [1] is < 0.1 µM; in assay [2], > 0.316 µM.

`CCCCc1cc(OC2CCN(CCCNC(=O)CCC)CC2)c2ncccc2c1` [Example 70, N-(3-{4-[(6-butyl-8-quinolinyl)oxy]-1-piperidinyl}propyl) butanamide]: the Ki was < 0.01 µM in assay [1] and > 0.316 µM in assay [2].

As for `CCCCc1cc(OC2CCN(C[C@H]3CC[C@H](C(=O)NCCC)CC3)CC2)c2ncccc2c1` [Example 45, Trans-4-({4-[(6-butyl-8-quinolinyl)oxy]-1-piperidinyl}methyl)-N-propylcyclohexane carboxamide], the Ki in assay [1] was < 0.01 µM; in assay [2] it was > 0.316 µM.

Turning to `CCCCCCc1cc(OC2CCN(C[C@H]3CC[C@H](C(=O)NC(C)C)CC3)CC2)c2ncccc2c1` [Example 56, trans-4-({4-[(6-hexyl-8-quinolinyl)oxy]-1-piperidinyl}methyl)-N-(1-methylethyl) cyclohexane carboxamide], the figures for the Ki in assay [1] and in assay [2] were < 0.01 µM and > 0.316 µM, respectively.

With `CCCCc1cc(OC2CCN(CCCC(=O)NCCC)CC2)c2ncccc2c1` [Example 22, 4-{4-[(6-butyl-8-quinolinyl)oxy]-1-piperidinyl}-N-propylbutanamide], the Ki is < 0.01 µM in assay [1] and > 3.16 µM in assay [2].

As for `CCCCc1cc(O[C@@H]2CCN(CCCC(=O)N3CCCCC3)C2)c2ncccc2c1` [Example 34, 6-butyl-8-({(3R)-1-[4-oxo-4-(1-piperidinyl)butyl]-3-pyrrolidinyl}oxy)quinoline], the Ki is < 0.01 µM in assay [1] and > 0.316 µM in assay [2].

With `CCCCc1cc(OC2CCN(C[C@H]3CC[C@H](C(=O)N4CCOCC4)CC3)CC2)c2ncccc2c1` [Example 63, 6-butyl-8-[(1-{[trans-4-(4-morpholinylcarbonyl)cyclohexyl]methyl}-4-piperidinyl)oxy]quinoline], the Ki in assay [1] is < 0.1 µM; in assay [2], > 0.316 µM.

Consider `CCCCCCc1cc(OC2CCN(C[C@H]3CC[C@H](C(=O)NCc4ccc(C)cc4)CC3)CC2)c2ncccc2c1` [Example 49, trans-4-({4-[(6-hexyl-8-quinolinyl)oxy]-1-piperidinyl}methyl)-N-[(4-methylphenyl)methyl]cyclohexane carboxamide], for which the Ki is < 0.1 µM in assay [1] and > 0.316 µM in assay [2].

For `CCCCc1cc(OC2CCN(CCCC(=O)NC(C)(C)C)CC2)c2ncccc2c1` [Example 6, 4-{4-[(6-Butyl-8-quinolinyl)oxy]-1-piperidinyl}-N-(1,1-dimethylethyl)butanamide], the figures for the Ki in assay [1] and in assay [2] were < 0.01 µM and > 0.316 µM, respectively.

As for `CCCCc1cc(OC2CCN(CCC(=O)NC(C)(C)C)CC2)c2ncccc2c1` [Example 17, 3-{4-[(6-butyl-8-quinolinyl)oxy]-1-piperidinyl}-N-(1,1-dimethylethyl) propanamide], the figures for the Ki in assay [1] and in assay [2] were < 0.01 µM and > 3.16 µM, respectively.

For the compound `CCCCCCc1cc(OC2CCN(C[C@H]3CC[C@H](C(=O)NCCC)CC3)CC2)c2ncccc2c1` [Example 55, trans-4-({4-[(6-hexyl-8-quinolinyl)oxy]-1-piperidinyl}methyl)-N-propylcyclohexane carboxamide], the Ki in assay [1] was < 0.1 µM; in assay [2], > 0.316 µM.

As to `CCCCc1cc(OC2CCN(CCNC(=O)CCC)CC2)c2ncccc2c1` [Example 74, N-(2-{4-[(6-butyl-8-quinolinyl)oxy]-1-piperidinyl}ethyl) butanamide], the results for the Ki in assay [1] and in assay [2] were < 0.01 µM and > 0.316 µM, respectively.

For `CCCCc1cc(OC2CCN(CCCc3nc(CCC)no3)CC2)c2ncccc2c1` [Example 87, 6-Butyl-8-({1-[3-(3-propyl-1,2,4-oxadiazol-5-yl)propyl]-4-piperidinyl}oxy)quinoline], the results for the Ki in assay [1] and in assay [2] were < 0.01 µM and > 0.316 µM, respectively.

For the compound `CCCCc1cc(OC2CCN(CC(=O)NC(C)C)CC2)c2ncccc2c1` [Example 14, 2-{4-[(6-butyl-8-quinolinyl)oxy]-1-piperidinyl}-N-(1-methylethyl)acetamide], the figures for the Ki in assay [1] and in assay [2] were < 0.1 µM and > 3.16 µM, respectively.

For `CCCCCCc1cc(OC2CCN(C[C@H]3CC[C@H](C(=O)NCCC(C)C)CC3)CC2)c2ncccc2c1` [Example 50, trans-4-({4-[(6-hexyl-8-quinolinyl)oxy]-1-piperidinyl}methyl)-N-(3-methylbutyl) cyclohexane carboxamide], the figures for the Ki in assay [1] and in assay [2] were < 0.1 µM and > 0.316 µM, respectively.

On to `CCCCc1cc(OC2CCN(CC(=O)NC(C)(C)C)CC2)c2ncccc2c1` [Example 12, 2-{4-[(6-butyl-8-quinolinyl)oxy]-1-piperidinyl}-N-(1,1-dimethylethyl) acetamide], for which the Ki in assay [1] was < 0.1 µM; in assay [2], > 3.16 µM.

For the compound `CCCCc1cc(OC2CCN(CCCNC(=O)C(C)(C)C)CC2)c2ncccc2c1` [Example 69, N-(3-{4-[(6-butyl-8-quinolinyl)oxy]-1-piperidinyl}propyl)-2,2-dimethyl propanamide], the results for the Ki in assay [1] and in assay [2] were < 0.01 µM and > 0.316 µM, respectively.

As to `CCCCc1cc(OC2CCN(CCCCC(=O)NCCOC)CC2)c2ncccc2c1` [Example 29, 5-{4-[(6-butyl-8-quinolinyl)oxy]-1-piperidinyl}-N-[2-(methyloxy)ethyl] pentanamide], the Ki is < 0.1 µM in assay [1] and > 3.16 µM in assay [2].

With `CCCCc1cc(OC2CCN(CCCCC(=O)NC(C)C)CC2)c2ncccc2c1` [Example 32, 5-{4-[(6-butyl-8-quinolinyl)oxy]-1-piperidinyl}-N-(1-methylethyl) pentanamide], in assay [1], the Ki is < 0.01 µM.

For the origin of these results see patent publication US20100222349A1, “QUINOLINE DERIVATIVES USED TO TREAT INFLAMMATORY AND ALLERGIC DISEASES” (Glaxo Group Limited, priority 2007, published 2010).
